The values that follow come from ChEMBL document CHEMBL1123690, “Redox chemistry of the 9-anilinoacridine class of antitumor agents” (J Med Chem, 1987).

The first experiment concerns L1210. Briefly: Dose of the drug (mol /kg) providing a 50% life extension in L1210 assays when given at qd 1-5 schedule. The format is functional, Mus musculus.
Details: not given
Consider `COP(=O)(Nc1ccc(Nc2c3ccccc3nc3ccccc23)cc1)OC`, for which the “Log 1/D50” value was determined as 4.46.

A further experiment deals with L1210. Put plainly: Inhibitory concentration to reduce the growth of L1210 cells by 50% after 70 hr. It is filed as functional, cell-based. The note with it: Mus musculus, L1210, 70 h.
Take `CC(=O)Nc1ccc(Nc2c3ccccc3nc3ccccc23)cc1`: the IC50 came out at 100 nM. This lies in the sub-micromolar range.
Same read-out and setting: under `COC(=O)Nc1ccc(Nc2c3ccccc3nc3ccccc23)cc1` stands 60 nM.
In turn, `Nc1ccc(Nc2c3ccccc3nc3ccccc23)cc1` yielded an IC50 of 350 nM. Against the preceding compound, the IC50 is about 5.8-fold higher.
The same measure, in the same setting: under `CN(C)c1ccc(Nc2c3ccccc3nc3ccccc23)cc1` stands 600 nM; under `CNc1ccc(Nc2c3ccccc3nc3ccccc23)cc1`, 180 nM; under `CCNc1ccc(Nc2c3ccccc3nc3ccccc23)cc1`, 250 nM.
The same measure, in the same setting: under `O=S(=O)(Nc1ccc(Nc2c3ccccc3nc3ccccc23)cc1)c1ccccc1` stands 3.5 nM; under `Oc1ccc(Nc2c3ccccc3nc3ccccc23)cc1`, 250 nM.
In turn, `O=C(Nc1ccc(Nc2c3ccccc3nc3ccccc23)cc1)c1ccccc1` displayed an IC50 of 20 nM.
The compound `CS(=O)(=O)Nc1ccc(Nc2c3ccccc3nc3ccccc23)cc1` gave an IC50 of 35 nM.
In turn, `COP(=O)(Nc1ccc(Nc2c3ccccc3nc3ccccc23)cc1)OC` displayed an IC50 of 15 nM.
